60 molecules from PubChem BioAssay AID1117324 (Cheminformatics & Chemogenomics Research Group (CCRG), …, 2015) can be followed below.

Activity calls are given as the source filed them. The rule behind the calls is not given here.

For the experiment, the system named is VEGF-stimulated ADSC/ECFC co-culture, nuclear area imaging. Description: nuclear area loss in endothelial-stromal co-culture, dose response, cell-based, VEGF stimulation, IC50 (AID 1117324).

Turning to `COCC(C)N(C(=O)CCl)c1c(C)csc1C` (stereo not given), the IC50 (as a rule, the point on the concentration scale where inhibition reaches its midpoint) was > 10 µM (inactive). As for `CCOC(=O)C1=C(C)NC(C)=C(C(=O)OCC)C1c1ccccc1/C=C/C(=O)OC(C)(C)C`, the IC50 is > 10 µM (inactive). The figure for `Clc1ccc(Nc2nnc(Cc3ccncc3)c3ccccc23)cc1` is > 10 µM (inactive); for `O=C(O)c1ccc(-n2nc(-c3ccccc3O)nc2-c2ccccc2O)cc1` it is > 10 µM (inactive); for `C/C=C(/C(=C/C)c1ccc(OC(C)=O)cc1)c1ccc(OC(C)=O)cc1` it is > 10 µM (inactive). `C[C@]12CC[C@@H]3c4ccc(O)cc4CC[C@H]3[C@@H]1CC[C@@H]2OC(=O)CCC1CCCC1`: the IC50 was > 10 µM (inactive). `O=C(CCl)c1ccc(Cl)cc1Cl`: the IC50 was 6.17 µM (inactive). Turning to `COc1ccc([C@@H]2Sc3ccccc3NC(=O)[C@@H]2O)cc1`, the IC50 is > 10 µM (inactive).

For `CCCCCCCCCCCC[N+](C)(C)CCOc1ccccc1`, the IC50 was 7.29 µM (inactive).

Consider `CN1CCN(C2Cc3ccccc3Sc3ccc(Cl)cc32)CC1` (stereo not given), for which the IC50 was > 10 µM (inactive). For the molecule `CN1CC[C@H](c2c(O)cc(O)c3c(=O)cc(-c4ccccc4Cl)oc23)[C@H](O)C1`, the IC50 is 0.328 µM. For `CC[C@]1(O)CC[C@H]2[C@@H]3CCC4=CCCC[C@@H]4[C@H]3CC[C@@]21C`, the IC50 was > 10 µM (inactive). In the case of `O=C(O)c1ccc2[nH]cc(CCCCN3CC=C(c4ccccc4)CC3)c2c1`, the IC50 is > 10 µM (inactive).

With `O=C(O)CCC(=O)OC[C@@H](NC(=O)C(Cl)Cl)[C@H](O)c1ccc([N+](=O)[O-])cc1`, the IC50 was > 10 µM (inactive). Take `CC(=O)N(CC(O)CN(C(C)=O)c1c(I)c(C(=O)NCC(O)CO)c(I)c(C(=O)NCC(O)CO)c1I)c1c(I)c(C(=O)NCC(O)CO)c(I)c(C(=O)NCC(O)CO)c1I` (stereo not given): the IC50 is > 10 µM (inactive). Regarding `OC[C@@H](O)[C@H](O)[C@H](O)[C@@H](O)CO`, the IC50 was > 10 µM (inactive). Turning to `Cc1nc2ccccc2n1Cc1ccc(Cl)cc1`, the IC50 was > 10 µM (inactive).

`COC(=O)Nc1nc2ccc(C(=O)C3CC3)cc2[nH]1`: the IC50 was > 10 µM (inactive). Regarding `O=c1c(-c2ccc(O)cc2)coc2cc(O)cc(O)c12`, the IC50 is > 10 µM (inactive).

In the case of `Cc1cccc(C)c1NC(=O)CN1CCN(CCCC(c2ccc(F)cc2)c2ccc(F)cc2)CC1`, the IC50 is 9.37 µM (inactive).

Regarding `CO[C@@]12[C@H](COC(N)=O)C3=C(C(=O)C(C)=C(N)C3=O)N1C[C@@H]1N[C@@H]12`, the IC50 was 5.96 µM (inactive). Then `CN(C)C(=O)Oc1cccc([N+](C)(C)C)c1`, with > 10 µM (inactive).

For `C[C@@H]1C[C@@H]([C@H](O)CC2CC(=O)NC(=O)C2)C(=O)[C@@H](C)C1`, the IC50 is > 10 µM (inactive). `COc1c(C)c2c(c(O)c1C/C=C(\C)CCC(=O)OCCN1CCOCC1)C(=O)OC2`: the IC50 was > 10 µM (inactive). Consider `CCCCCCOC(=O)c1cccnc1`, for which the IC50 was > 10 µM (inactive). `CN(C)c1ccc2nc3ccc(=[N+](C)C)cc-3sc2c1`: the IC50 was > 10 µM (inactive). `Clc1ccc(CSC(Cn2ccnc2)c2ccc(Cl)cc2Cl)cc1` (stereo not given): the IC50 was 8.76 µM (inactive). In the case of `CC(=O)Oc1ccc(C2(c3ccc(OC(C)=O)cc3)Oc3ccccc3NC2=O)cc1`, the IC50 is > 10 µM (inactive). For the molecule `O=c1[nH]c(=O)n([C@H]2C[C@H](O)[C@@H](CO)O2)cc1I`, the IC50 was > 10 µM (inactive). In the case of `NCCNc1ccc(NCCN)c2c1C(=O)c1ccncc1C2=O`, the IC50 is > 10 µM (inactive). On to `CCCCCCCCCCCCCCCC[N+](C)(C)CCN(Cc1ccc(OC)cc1)c1ncccn1`, for which the IC50 is > 10 µM (inactive).

For `O=C1C(I)=CC(=C(c2cc(I)c(O)c(I)c2)c2ccccc2C(=O)O)C=C1I`, the IC50 is > 10 µM (inactive). For the molecule `CCN(CC)CCNC(=O)c1c(C)[nH]c(/C=C2\C(=O)Nc3ccc(F)cc32)c1C`, the IC50 is > 10 µM (inactive). As to `O=S(c1cc(Cl)cc(Cl)c1O)c1cc(Cl)cc(Cl)c1O`, the IC50 is > 10 µM (inactive). With `CCCCCCCCOC(=O)c1ccccc1C(=O)OCCCCCCCC`, the IC50 is > 10 µM (inactive). The figure for `Clc1ccc(CO/N=C(\Cn2ccnc2)c2ccc(Cl)cc2Cl)c(Cl)c1` is 8.85 µM (inactive). As for `CC(=O)Oc1ccccc1C(=O)Nc1ncc([N+](=O)[O-])s1`, the IC50 was > 10 µM (inactive). For `CC[C@]12CCCN3CCc4c(n(c5ccccc45)C(=O)C1)[C@@H]32`, the IC50 is > 10 µM (inactive). As for `O[C@@H](c1cc(C(F)(F)F)nc2c(C(F)(F)F)cccc12)[C@H]1CCCCN1`, the IC50 is 8.61 µM (inactive). The figure for `CCC(C(=O)OCCOCCN(CC)CC)c1ccccc1` (stereo not given) is > 10 µM (inactive). On to `Nc1ncn([C@@H]2O[C@H](CO)[C@@H](O)[C@H]2O)c(=O)n1`, for which the IC50 was > 10 µM (inactive). Then `CC[C@]1(O)C[C@H]2CN(CCc3c([nH]c4ccccc34)[C@@](C(=O)OC)(c3cc4c(cc3OC)N(C=O)[C@H]3[C@@](O)(C(=O)OC)[C@H](OC(C)=O)[C@]5(CC)C=CCN6CC[C@]43[C@@H]65)C2)C1`, with > 10 µM (inactive); and `O=[N+]([O-])c1ccc(Oc2ccc(N=C=S)cc2)cc1`, with > 10 µM (inactive); and `COc1ccc(/C=N/NC(=O)c2ccncc2)cc1OC`, with > 10 µM (inactive). For `Cc1c(C)c2c(c(C)c1OC(=O)CCC(=O)O)CC[C@@](C)(CCC[C@H](C)CCC[C@H](C)CCCC(C)C)O2`, the IC50 is > 10 µM (inactive).

For `CC12CCC(CC1)C(C)(C)O2`, the IC50 is > 10 µM (inactive). Take `CCCCCCCCCCCC[N+](C)(C)Cc1ccccc1`: the IC50 is 6.93 µM (inactive). Regarding `CCCCCCNC(=O)n1cc(F)c(=O)[nH]c1=O`, the IC50 is > 10 µM (inactive). Then `CCCCCCCCCCCCCCCCNc1ccc(C(=O)O)cc1`, with > 10 µM (inactive). Take `CC1=C(/C=C/C(C)=C/C=C/C(C)=C/C(=O)Nc2ccc(O)cc2)C(C)(C)CCC1`: the IC50 is 6.24 µM (inactive). On to `Cc1ccc2c(Br)cc(Br)c(O)c2n1`, for which the IC50 was > 10 µM (inactive). With `N[C@@H](Cc1ccc(N(CCCl)CCCl)cc1)C(=O)O`, the IC50 was > 10 µM (inactive). For the molecule `CC(COc1ccccc1)NN` (stereo not given), the IC50 was > 10 µM (inactive). In the case of `COc1cccc2c1C(=O)c1c(O)c3c(c(O)c1C2=O)C[C@@](O)(C(=O)CO)C[C@@H]3O[C@H]1C[C@H](N)[C@H](O)[C@H](C)O1`, the IC50 was 0.114 µM. Consider `O=C(O)C1(C(=O)O)CCC1.[NH2-].[NH2-].[Pt+2]`, for which the IC50 was > 10 µM (inactive). The figure for `S=c1nc[nH]c2nc[nH]c12` is > 10 µM (inactive).

For the molecule `CCCCC(CC)COC(=O)CC(C(=O)OCC(CC)CCCC)S(=O)(=O)O` (stereo not given), the IC50 is > 10 µM (inactive).

With `CC[C@H](C)C(=O)O[C@H]1C[C@@H](C)C=C2C=C[C@H](C)[C@H](CC[C@@H]3C[C@@H](O)CC(=O)O3)[C@H]21`, the IC50 is > 10 µM (inactive). As for `Oc1ccc(Cl)cc1Cc1cc(Cl)ccc1O`, the IC50 was 6 µM (inactive). For the molecule `O=C(CCN1CCC(c2ccccc2)C1)c1ccc2c(c1)OCCO2` (stereo not given), the IC50 is > 10 µM (inactive).
